Reference: patent US20050222135A1, “Active substance combination” (priority 2004, published 2005)

Test system: male Swiss albino mice
Details: 30 minute period after 2 mg/kg naloxone i.v.; Morphine 5 mg/kg/day s.c. over 4 days, Cizolirtine (as citrate) 40 mg/kg/day i.p.
Description: Pharmacodyn. 1971, 190, pages 213-218 in male Swiss albino mice (weight 20-25 g, Harlan Iberica, S. Feliu de Codinas, Barcelona, Spain).
Withdrawal symptoms are then induced by the intravenous administration of a suitable opioid antagonist in a dose known to those skilled in the art, for example, 2 mg/kg naloxone in case of morphine, 30 minutes after the administration of the final dose of the opioid is completed.
After the administration of 2 mg/kg naloxone 30 minutes after the administration of the final dose of the active substance combination has been completed, the mice are closely watched for withdrawal symptoms, namely jumps and shakes (of the wet dog shake type), which are then counted and registered.

Compound `CN1CC[C@]23c4c5ccc(O)c4O[C@H]2[C@@H](O)C=C[C@H]3[C@H]1C5` [Morphine] has a Number of jumps of 6.6.
